Test results from article PMC8704491, “Prothoracicostatic Activity of the Ecdysis-Regulating Neuropeptide Crustacean Cardioactive Peptide (CCAP) in the Desert Locust” (International Journal of Molecular Sciences, 2021).

Assays:
[1] = test system: heartbeat and skeletal muscles; design: method as in PMID 9151755, PMID 18835439, PMID 16968777; settings: released into hemolymph during ecdysis; ref [14],[15],[33]; cited from earlier work
[2] = test system: locust oviducts; settings: Ca^2+-dependent, ref [32]; cited from earlier work
Description: The three Schgr-CCAPRs show high sequence similarity to deorphanized CCAP receptors of D. melanogaster, T. castaneum and R. prolixus. Although only one CCAP receptor has been identified in many insect species, there are other species, such as S. gregaria, which have multiple isoforms. […] This is a commonly occurring feature during evolution of GPCR genes in both vertebrates and invertebrates. To supp ...

[3] = test system: 20E levels; settings: daily injection, adult American cockroach; ref [35]; cited from earlier work
Experimental: High relative transcript levels of the Schgr-CCAPRs were determined in the PG at N5WD. […] From these observations we conclude that CCAP acts directly on the prothoracic gland as a prothoracicostatic factor. In contrast to the ecdysiostatic activity of CCAP in S. gregaria nymphs, dai ...

[4] = test system: Schgr-CCAPpre depleted nymphs; test: rescue of Schgr-CCAPpre depleted nymphs by CCAP injection; assay type: in vivo, Schistocerca gregaria; settings: daily 0.92 pg CCAP in 4 µL saline throughout N5; 18/30; vs saline; p < 0.05, Fisher's exact test
Experimental: Figure 4 Phenotypic effect of Schgr-CCAPpre or Schgr-CCAPR-1, -2 and/or -3 depletion on ecdysis. (A) Percentage of nymphs displaying ecdysis arrest at nymphal-adult (N5-Ad) molt (n = 25, per construct). Nymphs were injected at N4D0, N4D4, N5D1, N5D4 and N5D7 with 400 ng of dsGFP (control), dsCCAPpre, dsCCAPR1/2/3a, dsCCAPR1/2/3b, dsCCAPR-1, dsCCAPR-2 or dsCCAPR-3. (B) Percentage of nymphs displaying ecdysis arrest at nymphal-nymphal (N4–N5) and N5-Ad molts (n = 25, per construct). Nymphs were injected in late N3, N4D1 and N4D4 with 400 ng of dsGFP (control), dsCCAPpre or dsCCAPR1/2/3a. (C) The timing of ecdysis initiation in dsGFP (control), dsCCAPpre (Schgr-CCAPpre knockdown) and dsCCAPR1/2/3a (Schgr-CCAPRs knockdown) injected nymphs, as observed starting from freshly molted fifth instar nymphs. A log-rank (Mantel-Cox) test was used to check for significant differences in ecdysis initiation between populations. (D) Rescue of Schgr-CCAPpre depleted nymphs (n = 30) by additional daily injections of 0.92 pg CCAP in 4 µL S. gregaria saline in N5. In the control groups, nymphs received dsGFP injections or dsCCAPpre injections (n = 31), with additional daily injections of S. gregaria saline in N5. Significant differences (p < 0.05) are indicated by an asterisk (*) and calculated by the Fisher’s exact test. (E) Ecdysis deficient phenotype (top photos). […]

[5] = test system: prothoracic gland (PG) explants; test: ecdysteroid secretion by prothoracic gland explants; design: species or system Schistocerca gregaria; settings: 1 µM CCAP, 24 h, 50 µL Grace's insect medium, 30 °C, PG from N5IW nymphs, n = 16 vs n = 15, p < 0.001
Experimental: Figure 6 Ecdysteroid secretion by prothoracic gland (PG) explants incubated for 24 h in a volume of 50 µL Grace’s insect medium (GI) with or without 1 µM CCAP. PGs were micro-dissected from fifth instar (N5) nymphs at N5IW (inter-wing distance of at least 1.8 mm; GI, n = 15; GI + 1 µM CCAP, n = 16) Each data point represents 20E-equivalents secreted by PG from a single nymph. Mean ± S.E.M. is also indicated per group. Significant difference (p < 0.001) is indicated by asterisks (***) and was calculated by an unpaired t-test with Welch’s correction. Used abbreviations: CCAP = crustacean cardioactive peptide and GI = Grace’s Insect Medium.
To correlate the locust’s morphology to the nymphal ecdysteroid titer that regulates molting, hemolymph was collected as well at the described sampling moments. 20 µL hemolymph from each N5 animal was collected into 280 µL cold ethanol. Each sample was further processed as previously described. The ecdysteroid titers were subsequently quantified using the 20-Hydroxyecdysone ELISA kit (Bertin Technologies, Montigny-le-Bretonneux, France), according to the manufacturer’s protocol.
PGs of N5IW nymphs were micro-dissected in S. gregaria saline solution and incubated in 50 µL Grace’s Insect medium (GI) (Invitrogen, Waltham, MA, USA) containing 1 µM CCAP or in GI without peptide. […]

[6] = test system: Schgr-CCAPR-3; test: CRE(6x)-luc reporter assay, HEK-293T cells; assay type: cell-based, Schistocerca gregaria; settings: CRE-controlled luciferase, three independent experiments, in triplicate
Description: (§1) To deorphanize the three GPCRs, they were heterologously expressed in Chinese hamster ovary (CHO)-WTA11 cells, which stably express aequorin and a promiscuous Gα16 subunit. […] Intracellular signaling of Schgr-CCAPR-1, -2 and -3 was investigated in Schgr-CCAPR-expressing cells lacking the promiscuous Gα16 subunit (CHO-PAM28 cells) or co-expressing a cyclic AMP (cAMP) response element (CRE)-luciferase reporter (human embryonic kidney (HEK) 293T). In Schgr-CCAPR expressing CHO-PAM28 cells, Schgr-CCAP induced dose-dependent aequorin-based bioluminescent responses, with EC50 values in the subnanomolar range: 0.7 nM, 0.2 nM and 0.5 nM for Schgr-CCAPR-1, -2 and -3, respectively (Figure S4A).
(§2) Aequorin and CRE(6x)-luc reporter assays, as well as maintenance of the cell cultures and cell transfections, were carried out as previously described. […] Minimum bioluminescence values correlate with the signal obtained in the blank condition (without exposure to S. gregaria peptides). Calculations were performed using the output file from the Microwin software (Berthold Technologies, Bad Wildbad, Germany) in Excel (Microsoft). Half-maximal effective concentrations (EC50) were determined with the PRISM software (Graphpad version 6.03) using non-linear regression, log(agonist) vs. normalized response, applied to a sigmoidal dose-response model. […]
(§3) S c h g r-C C A P R -1 E C5 0 = 0 ,7 n M
(§4) S c hg r-C C A P R -2 E C5 0 = 0 ,2 n M
(§5) S c h g r-C C A P R -3 E C5 0 = 0 ,5 n M
(§6) S c h g r-C C A P R -1 E C5 0 = 0 ,0 1 n M
(§7) S c hg r-C C A P R -2 E C5 0 = 1 ,2 n M
(§8) S c hg r-C C A P R -3 E C5 0 = 0 ,0 5 n M
(§9) Dose-response curves induced by CCAP for cell -based receptor activity assays A) in CHO-PAM28-Schgr -CCAPR-1, -2 or -3 cells and B) in HEK293T Schgr -CCAPR-1, -2 or -3 cells, co - transfected with CRE(6x)-Luc construct. These cell-based receptor activity data were obtained from three independent experiments. The bioluminescence was measured in triplicate per concentration of Schgr -CCAP and per transfection. Error bars represent the S.E.M and the 100 % level refers to the maximal response level. […]

[7] = test system: Schgr-CCAPR-2; test: CRE(6x)-luc reporter assay, HEK-293T cells; assay type: cell-based, Schistocerca gregaria; settings: CRE-controlled luciferase, three independent experiments, in triplicate
Description: as §1, §2, §3, §4, §5, §6, §7, §8, §9

[8] = test system: Schgr-CCAPR-1; test: CRE(6x)-luc reporter assay, HEK-293T cells; assay type: cell-based, Schistocerca gregaria; settings: CRE-controlled luciferase, three independent experiments, in triplicate
Description: as §1, §2, §3, §4, §5, §6, §7, §8, §9

[9] = test system: Schgr-CCAPR-3; test: aequorin bioluminescence assay, CHO-WTA11 cells; assay type: cell-based, Schistocerca gregaria
Description: as §1
(§10) Figure 2 Aequorin-based bioluminescent responses in cell-based receptor activity assays. (A) Dose-response curves induced by CCAP in CHO-WTA11-Schgr-CCAPR-1, -2 or -3 cells. The EC50 values are indicated. (B) Results for aequorin-based bioluminescent response induced in CHO-WTA11-Schgr-CCAPR-1, -2 and -3 cells upon addition of 1 µM of peptide. These cell-based receptor activity data were obtained from three independent experiments. The cell-based assays were executed in three independent transfections. Error bars in dose-response curves represent the S.E.M and the 100% level refers to the maximal response level. Agonist selectivity was normalized to bioluminescent response acquired by exposure to CCAP. The zero-response level corresponds to treatment with BSA medium only. Abbreviations: Schgr = Schistocerca gregaria, CCAP = crustacean cardioactive peptide, CCAPR = CCAP receptor, CCHa = CCHamide, ASTC = allostatin C, ASTCCC = allostatin CCC, Crz = corazonin, AKH I(I) = adipokinetic hormone I(I), INT = inotocin.
(§11) Aequorin and CRE(6x)-luc reporter assays, as well as maintenance of the cell cultures and cell transfections, were carried out as previously described. […] Minimum bioluminescence values correlate with the signal obtained in the blank condition (without exposure to S. gregaria peptides). Calculations were performed using the output file from the Microwin software (Berthold Technologies, Bad Wildbad, Germany) in Excel (Microsoft). Half-maximal effective concentrations (EC50) were determined with the PRISM software (Graphpad version 6.03) using non-linear regression, log(agonist) vs. normalized response, applied to a sigmoidal dose-response model.

[10] = test system: Schgr-CCAPR-2; test: aequorin bioluminescence assay, CHO-WTA11 cells; assay type: cell-based, Schistocerca gregaria
Description: as §1, §10, §11

[11] = test system: Schgr-CCAPR-1; test: aequorin bioluminescence assay, CHO-WTA11 cells; assay type: cell-based, Schistocerca gregaria
Description: as §1, §10, §11

[12] = test system: Schgr-CCAPR-3; test: aequorin bioluminescence assay, CHO-PAM28 cells; assay type: cell-based, Schistocerca gregaria; settings: CHO-PAM28 cells lacking Gα16, aequorin; three independent experiments, in triplicate
Description: as §1, §2, §3, §4, §5, §6, §7, §8, §9

[13] = test system: Schgr-CCAPR-2; test: aequorin bioluminescence assay, CHO-PAM28 cells; assay type: cell-based, Schistocerca gregaria; settings: CHO-PAM28 cells lacking Gα16, aequorin; three independent experiments, in triplicate
Description: as §1, §2, §3, §4, §5, §6, §7, §8, §9

[14] = test system: Schgr-CCAPR-1; test: aequorin bioluminescence assay, CHO-PAM28 cells; assay type: cell-based, Schistocerca gregaria; settings: CHO-PAM28 cells lacking Gα16, aequorin; three independent experiments, in triplicate
Description: as §1, §2, §3, §4, §5, §6, §7, §8, §9

[15] = 1 µM peptide, normalized to CCAP response
[16] = aequorin and promiscuous Gα16, three independent experiments

**Q.** Which results are given for crustacean cardioactive peptide [CCAP]?
**A.** heartbeat and contraction of skeletal muscles [1]: stimulate heartbeat and contraction of skeletal muscles; oviduct contractions [2]: induces Ca^2+-dependent contractions; 20E levels [3]: elevated 20E levels; rescue effect of ecdysis deficiency phenotype [4]: 60%; ecdysteroid secretion (prothoracicostatic activity) [5]: significant prothoracicostatic activity; ecdysteroid secretion (prothoracicostatic activity) ([5]; listed as Schgr-CCAP): suppressed ecdysteroid secretion; EC50 [6]: 0.05 nM; EC50 [7]: 1.2 nM; EC50 [8]: 0.01 nM; agonist selectivity, receptor activation [9, 15]: markedly activated; EC50 [9, 16]: 0.59 nM; agonist selectivity, receptor activation [10, 15]: markedly activated; EC50 [10, 16]: 0.32 nM; agonist selectivity, receptor activation [11, 15]: markedly activated; EC50 [11, 16]: 3.65 nM; EC50 [12]: 0.5 nM; EC50 [13]: 0.2 nM; EC50 [14]: 0.7 nM
